Test results reported in US20050215635A1, “Diarylheptanoid compounds and uses thereof” (priority 2004, published 2005).

What was measured:
[1] = system: p44/42 MAPK phosphorylation; assay: Western blotting of LPS induced phosphorylation of p44/42 MAPK in RAW 264.7 cells; format: cell-based, mouse; conditions: HMP 25 μM + LPS (0.5 μg/ml), RAW 264.7, 30 min (not at 60 min)
Protocol: FIG. 5A and 5B. Effect of HMP on LPS induced MAPKs activation. FIG. 5A, Total protein lysates of RAW 264.7 were prepared after treatment with HMP and/or LPS for indicated times and 40 μg of protein lysates were resolved and probed for phosphorylated (pp44/42 and pp38) and basal p44/42 and p38, using specific monoclonal antibodies as described in material and methods. FIG. 5B, Integrated density of phosphorylated p44/42 (pp44/42) as measured by Scion software. This experiment was repeated 4 times with similar results.
(§1) At indicated time points, cells were rapidly washed with ice-cold PBS and solubilized in cold lysis buffer containing 10 mM Tris-base, 5 mM EDTA, 50 mM NaCl, 1% Triton X-100, 5 mM phenylmethylsulfonyl fluoride (PMSF), 2 mM sodium orthovanadate, 10 μg/ml leupeptin, 25 μg/ml aprotinin, 1 mM sodium pyrophosphate, and 20% glycerol. […]
(§2) Equal amount of protein (40 μg) from each sample was loaded on SDS-polyacrylamide electrophoresis gel (8 and 10% separating gels for iNOS and p42/44^MAPK, respectively) and resolved for 1.5 h at 120 V in buffer containing 95 mM Tris-HCl, 960 mM glycine, and 0.5% SDS. […] Specific bands were detected by enhanced chemiluminescence's detection system (Amersham-Pharmacia biotech, NJ, USA) and the membrane was exposed to X-ray film. […]

[2] = system: TNF-α production from human PBMCs; assay: TNF-α ELISA in supernatants of LPS-treated human PBMCs; format: cell-based; conditions: 18 hrs
Protocol: The PBMCs were separated from peripheral blood of normal healthy human volunteers. […] Supernatant was harvested after 18 hrs and stored at −70° C. until tested. The quantity of IL-1β and TNF-α present in supernatants was estimated by ELISA (R&D systems, MN, USA) following manufacturer's instruction. A standard curve was obtained by plotting known concentrations of recombinant human IL-1β and TNF-α vs absorbance at 450 nm.
Each data point represents mean+standard deviation (SD) of 3 replicates.

COX-2 protein expression = assay: Western blotting of COX-2 protein expression in RAW 264.7 cells; format: cell-based, mouse; conditions: HMP 12.5 and 25 μM + LPS (0.5 μg/ml), RAW 264.7, 18 hrs
Protocol: FIG. 3. Inhibition of LPS induced iNOS and COX-2 protein expression by HMP. RAW 264.7 cells were treated with various concentrations of HMP and/or LPS (0.5 μg/ml) for 18 h. Total-cell lysate (40 μg) was resolved in 8-10% SDS-PAGE then transferred to PVDF membrane and detected with specific antibodies as described in Section 6. This experiment was repeated 4 times with similar observations. Lane-1, Control (without any treatment); 2, LPS (0.5 μg/ml); 3, LPS and HMP 25 μM; 4, LPS and HMP-12.5 μM.
as §1, §2

COX-2 mRNA expression = assay: Relative RT-PCR of COX-2 mRNA expression in RAW 264.7 cells; format: cell-based, mouse; conditions: RAW 264.7, 12 hrs
Protocol: FIG. 4A and B: Effect of HMP on mRNA expression of iNOS and COX-2. Fig. A, RAW 264.7 cells were incubated in the presence of LPS (0.5 μg/ml) with or without HMP (12.5, 25 μM) for 12 hrs. Total RNA isolated from RAW 264.7 cells after 12 hrs of treatments with LPS alone or with various concentration of HMP was reverse transcribed to make cDNA and 2 μl (for iNOS) or 1 μl (for COX-2) of cDNA was amplified using gene specific primer (Ambion Inc). Ten μl of each PCR reaction was resolved in 2% agarose gel. Lane 1, control; 2. LPS (0.5 μg/ml); 3, LPS+HMP (12.5 μM) and Lane, 4 LPS+HMP (25 μM). Fig. B, Histogram showing densitometric analysis of iNOS and COX-2 mRNA expression. […] This experiment was repeated 3 times separately with similar observation.
The RAW 264.7 cells were cultured (10^6/well) in 6 well plate for 24 hrs and then medium was replaced by fresh medium and different concentrations of HMP either alone or in combination of LPS was added and further cultured for 12 hrs. […] Linear range of amplification of iNOS and COX-2 cDNA (2 μl for COX-2 and 1μl for iNOS of RT reaction mixture) was determined using gene specific primers from Ambion Inc (TX, USA), following manufacturer's instruction. The optimum amount of 18S primer and competitor for iNOS and COX-2 gene were also determined as per manufacturer's instruction. […]

## COc1cc(CC/C=C/C(=O)CCc2ccccc2)ccc1O [AO-4, 7-(4″-hydroxy-3″-methoxyphenyl)-1-phenyl-hept-4-en-3-one]
[1]
  LPS-induced phosphorylation of p44/42 MAPK (in words): markedly inhibited
[2]; HMP 6.25 μM + LPS (10 ng/ml)
  TNF-α: 342.24 ± 11.50 pg/mL
[2]; HMP 6.25 μM alone, detection limit 15.62 pg/ml
  TNF-α: <15.62 pg/mL
[2]; HMP 12.5 μM + LPS (10 ng/ml)
  TNF-α: 298.49 ± 5.47 pg/mL
[2]; HMP 12.5 μM alone, detection limit 15.62 pg/ml
  TNF-α: <15.62 pg/mL
[2]; HMP 25 μM + LPS (10 ng/ml)
  TNF-α: 165.38 ± 8.48 pg/mL
[2]; HMP 25 μM alone, detection limit 15.62 pg/ml
  TNF-α: <15.62 pg/mL
[2]; HMP 6.25-25 μM + LPS
  inhibition of LPS induced TNF-α (in words): only at 25 μM concentration
COX-2 protein expression
  LPS induced COX-2 protein expression (Western blot, in words): markedly inhibited
COX-2 mRNA expression; HMP 12.5 μM + LPS (0.5 μg/ml)
  inhibition of LPS induced COX-2 mRNA expression (densitometry, ratio to 18 S RNA): 27.3%
COX-2 mRNA expression; HMP 25 μM + LPS (0.5 μg/ml)
  inhibition of LPS induced COX-2 mRNA expression (densitometry, ratio to 18 S RNA): 54.6%
